Like-named read-outs stand apart in the source and are kept apart here.
Tests used:
[1] = system: mouse (MC3T3-E1) and human (TE-85) osteoblast-line cells; format: cell-based
From the text: Compounds of the present invention have utility to treat osteoporosis through enhancement of bone calcification rather than traditional approaches which generally involve inhibition of bone degeneration or resorption. The compounds of the present invention have been evaluated as stimulators of proliferation of osteoblast cell and chick calivaria bone organ culture which is predictive of enhancement of bone mass and bone formation in vivo.
The action of select compounds to stimulate osteoblast growth was measured in culture by estimating the rate of DNA synthesis by the rate of ^3 H-thymidine incorporation into DNA. Only cells undergoing mitosis synthesized new DNA and thus only these cells incorporated the radiolabelled DNA-specific thymidine. The stimulation of the proliferation and differentiation of bone-forming cells, osteoblasts, was a prerequisite for an increase in bone formation and bone mass. The ability of agents to increase osteoblast proliferation and differentiation can be predicted by their action on cultured osteoblast-line cells in vitro. In this test, mouse (MC3T3-E1) and human (TE-85) osteoblast-line cells (American Type Tissue Culture Collection, #CRL 1543, Rockville, Md. cloned by Sudo et al., Koriyama, Japan) were cultured in vitro and the effect of various agents were tested on osteoblast cell proliferation. Cells were harvested from large culture flasks where they were allowed to grow to near confluency using trypsin. The cells were plated into 96 well culture plates, 1600 cells in 100 μL per well in Dulbencos Modified Eagle's Medium (DMEM) with 25 mM HEPES buffer, L-glutamine (584 mg/L); D-glucose (4.5 g/L) supplemented with fetal bovine sera (10%); penicillin (100 units/mL) and streptomycin (100 mcg/mL); sodium pyruvate (10 μM final concentration). The cells were allowed to plate overnight in DMEM containing 10% fetal bovine sera at 37° C. in an atmosphere of 5% CO2/95% air. Following their placement into 96 well culture plates all the osteoblast-line cells, either the MC3T3-E1 or the TE-85 cell lines, were allowed an additional 24 hours preincubation period in media containing only 0.1% fetal bovine sera.
Twenty hours later, a 20 μL aliquot of media containing 0.4 μCi of ^3 H-thymidine was added to each culture well. The cells were then incubated an additional 4 hours. The incubation was terminated by aspirating the media and washing with HBSS (Hank's Balanced Salt Solution). The cells were then treated with 100 μL of 0.5% trypsin and 5.3 mM EDTA for 30 minutes at room temperature. The cells were then aspirated onto glass fiber filter and washed with water. The radioactivity on the filters was quantified by liquid scintillation spectroscopy. The rate of ^3 H-thymidine incorporation into DNA was then utilized as an index of cell proliferation. The results are shown in Table 13 expressed as % times control where the control is 100%. […]

[2] = target: T1, progestin receptor from rabbit uterus (Oryctolagus cuniculus, UniProt P06186); experiment: Progestin receptor binding (3H-R5020 displacement); settings: rabbit uterine cytosol, 4° C., 18 h, read-out: IC50: Binding affinity for the progestin receptor from rabbit uterus
T1 construct: Cytosolic progestin receptor were obtained by mixing rabbit uterine tissue with a Tris buffer; from tissue; host or cells: rabbit uterus cytosol
Method: A progestin initiates a biological response by first binding to a progestin receptor. Affinity for progestin receptors was determined by measuring the ability of compounds to displace a progestin radioligand from those receptors in vitro. Cytosolic progestin receptor were obtained by mixing rabbit uterine tissue with a Tris buffer [0.1M Tris-Hcl, 1 mM Na2 EDTA, 1 mM dithiothreotol, 1 mM sodium molybdate, 1% glycerol, pH 7.4]. The tissue/buffer mixture was homogenized under ice-cold conditions. The homogenate was then centrifuged and the supernatant (cytosol preparation) was decanted and stored at -70° C. and thawed prior to use. The competitive binding assay was performed by mixing ^3 H-R5020, a progestin radioligand, with cytosol preparation and various concentrations of test compounds (prepared in DMSO with a final 5% DMSO concentration). This mixture was then incubated at 4° C. for about 18 hours. Non-specific binding was determined using an unlabelled ligand in excess. After the incubation period, the radioligand bound to receptor was separated from free radioligand using dextran-coated charcoal. The amount of bound radioligand was then determined by liquid scintillation counting. The data were expressed as the concentration of test compound that displaced 50% of the radioligand from the receptor (IC50)
Aspects of the application used in this procedure are described in the following: J. L. McGuire et al., Biochemistry 13, 319, 1974.

T1 sequence (P06186 whole entry): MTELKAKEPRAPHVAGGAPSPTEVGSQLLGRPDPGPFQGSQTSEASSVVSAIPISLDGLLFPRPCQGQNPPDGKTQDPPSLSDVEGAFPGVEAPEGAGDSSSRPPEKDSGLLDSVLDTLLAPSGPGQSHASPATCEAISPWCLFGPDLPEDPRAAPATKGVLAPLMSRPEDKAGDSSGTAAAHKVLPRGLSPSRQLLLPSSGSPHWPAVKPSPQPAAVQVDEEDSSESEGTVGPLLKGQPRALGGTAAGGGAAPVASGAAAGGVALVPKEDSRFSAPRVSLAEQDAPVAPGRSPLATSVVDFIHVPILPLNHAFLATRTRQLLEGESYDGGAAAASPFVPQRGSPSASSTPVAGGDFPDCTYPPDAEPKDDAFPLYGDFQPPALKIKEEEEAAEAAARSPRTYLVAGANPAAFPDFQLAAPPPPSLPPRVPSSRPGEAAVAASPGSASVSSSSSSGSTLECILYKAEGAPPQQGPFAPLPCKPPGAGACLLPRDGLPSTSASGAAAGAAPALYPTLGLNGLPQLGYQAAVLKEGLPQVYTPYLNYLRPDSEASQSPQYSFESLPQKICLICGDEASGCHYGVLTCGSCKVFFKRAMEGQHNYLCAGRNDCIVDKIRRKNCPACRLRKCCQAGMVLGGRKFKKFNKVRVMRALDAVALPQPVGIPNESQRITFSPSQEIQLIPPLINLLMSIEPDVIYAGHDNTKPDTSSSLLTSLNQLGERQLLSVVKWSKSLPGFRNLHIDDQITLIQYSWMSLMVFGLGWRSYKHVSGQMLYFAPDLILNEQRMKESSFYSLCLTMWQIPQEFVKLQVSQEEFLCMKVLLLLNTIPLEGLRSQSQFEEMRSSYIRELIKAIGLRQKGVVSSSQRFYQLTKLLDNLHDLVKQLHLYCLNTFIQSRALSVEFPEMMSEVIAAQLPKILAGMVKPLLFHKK

SMILES | IC50 [2] [nM] | also measured
Cc1ccc(S(=O)(=O)N2CCCC(c3ccccc3)=N2)cc1 [Compound 2] | 3000 | Osteoblast Cell Proliferation, 3H-thymidine incorporation vs control (100%) ([1]; 10^-6): 105%; Osteoblast Cell Proliferation, 3H-thymidine incorporation vs control (100%) ([1]; 10^-7): 119%; Osteoblast Cell Proliferation, 3H-thymidine incorporation vs control (100%) ([1]; 10^-8): 99%; Osteoblast Cell Proliferation, 3H-thymidine incorporation vs control (100%) ([1]; 10^-9): 91%; Osteoblast Cell Proliferation, 3H-thymidine incorporation vs control (100%) ([1]; 10^-10): 77%
Cc1ccc(S(=O)(=O)N2N=C(c3ccccc3)CC3C4C5C=CC(C5)C4CC32)cc1 (centres unmarked) [Compound 157, 1,4,4a,9a-Tetrahydro-1-(4-methylbenzenesulfonyl)-3-phenyl-bicyclo[2.2.1]hept-7-enyl[5.6-a]cyclopenta-[1.2-e]pyridazine] | 750 | Osteoblast Cell Proliferation, 3H-thymidine incorporation vs control (100%) ([1]; 10^-6): 107%; Osteoblast Cell Proliferation, 3H-thymidine incorporation vs control (100%) ([1]; 10^-7): 108%; Osteoblast Cell Proliferation, 3H-thymidine incorporation vs control (100%) ([1]; 10^-8): 113%; Osteoblast Cell Proliferation, 3H-thymidine incorporation vs control (100%) ([1]; 10^-9): 111%; Osteoblast Cell Proliferation, 3H-thymidine incorporation vs control (100%) ([1]; 10^-10): 128%
O=C(c1ccccc1)N1CCCC(c2ccccc2)=N1 [Compound 196] | 100000 | Osteoblast Cell Proliferation, 3H-thymidine incorporation vs control (100%) ([1]; 10^-6): 102%; Osteoblast Cell Proliferation, 3H-thymidine incorporation vs control (100%) ([1]; 10^-7): 97%; Osteoblast Cell Proliferation, 3H-thymidine incorporation vs control (100%) ([1]; 10^-8): 102%; Osteoblast Cell Proliferation, 3H-thymidine incorporation vs control (100%) ([1]; 10^-9): 92%; Osteoblast Cell Proliferation, 3H-thymidine incorporation vs control (100%) ([1]; 10^-10): 104%
COc1ccc(C2=NN(S(=O)(=O)c3ccc4ccccc4c3)CCC2)cc1 [Compound 65] | 57 | Osteoblast Cell Proliferation, 3H-thymidine incorporation vs control (100%) ([1]; 10^-6): 90%; Osteoblast Cell Proliferation, 3H-thymidine incorporation vs control (100%) ([1]; 10^-7): 98%; Osteoblast Cell Proliferation, 3H-thymidine incorporation vs control (100%) ([1]; 10^-8): 94%; Osteoblast Cell Proliferation, 3H-thymidine incorporation vs control (100%) ([1]; 10^-9): 88%; Osteoblast Cell Proliferation, 3H-thymidine incorporation vs control (100%) ([1]; 10^-10): 80%
COc1ccc(C2=NN(C(=O)c3ccc(Cl)c(Cl)c3)CCC2)cc1 [Compound 189] | 100000 | Osteoblast Cell Proliferation, 3H-thymidine incorporation vs control (100%) ([1]; 10^-6): 89%; Osteoblast Cell Proliferation, 3H-thymidine incorporation vs control (100%) ([1]; 10^-7): 112%; Osteoblast Cell Proliferation, 3H-thymidine incorporation vs control (100%) ([1]; 10^-8): 98%; Osteoblast Cell Proliferation, 3H-thymidine incorporation vs control (100%) ([1]; 10^-9): 122%; Osteoblast Cell Proliferation, 3H-thymidine incorporation vs control (100%) ([1]; 10^-10): 128%
Nc1ccc(S(=O)(=O)N2CCCC(c3ccc(Cl)cc3)=N2)cc1 [Compound 153, 1-(4-Aminobenzenesulfonyl)-3-(4-chlorophenyl)-1,4,5,6-tetrahydropyridazine] | 636 | Osteoblast Cell Proliferation, 3H-thymidine incorporation vs control (100%) ([1]; 10^-6): 85%; Osteoblast Cell Proliferation, 3H-thymidine incorporation vs control (100%) ([1]; 10^-7): 115%; Osteoblast Cell Proliferation, 3H-thymidine incorporation vs control (100%) ([1]; 10^-8): 83%; Osteoblast Cell Proliferation, 3H-thymidine incorporation vs control (100%) ([1]; 10^-9): 99%; Osteoblast Cell Proliferation, 3H-thymidine incorporation vs control (100%) ([1]; 10^-10): 103%
O=C(c1ccc([N+](=O)[O-])cc1)N1CCCC(c2ccc(Cl)cc2)=N1 [Compound 202] | 279 | Osteoblast Cell Proliferation, 3H-thymidine incorporation vs control (100%) ([1]; 10^-6): 98%; Osteoblast Cell Proliferation, 3H-thymidine incorporation vs control (100%) ([1]; 10^-7): 108%; Osteoblast Cell Proliferation, 3H-thymidine incorporation vs control (100%) ([1]; 10^-8): 110%; Osteoblast Cell Proliferation, 3H-thymidine incorporation vs control (100%) ([1]; 10^-9): 116%; Osteoblast Cell Proliferation, 3H-thymidine incorporation vs control (100%) ([1]; 10^-10): 128%
O=S(=O)(c1cc(Cl)ccc1Cl)N1CCCC(c2ccc3ccccc3c2)=N1 [Compound 118] | 5.56 | –
O=S(=O)(c1cccc2ccccc12)N1CCCC(c2ccccc2)=N1 [Compound 56] | 85.2 | –
CC1CC(c2ccccc2)=NN(S(=O)(=O)c2ccc(Br)cc2)C1 (centres unmarked) [Compound 142] | 1620 | –
O=S(=O)(c1ccc2ccccc2c1)N1CCCC(c2ccc3ccccc3c2)=N1 [Compound 132] | 7.5 | –
O=[N+]([O-])c1ccc(S(=O)(=O)N2CCCC(c3ccc(F)cc3)=N2)c([N+](=O)[O-])c1 [Compound 23] | 3000 | –
O=S(=O)(c1ccc2c(c1)CCCC2)N1CCCC(c2ccc(Cl)c(Cl)c2)=N1 [Compound 114] | 6.5 | –
O=S(=O)(c1cc(Cl)c(Cl)cc1Cl)N1CCCC(c2ccc(Cl)cc2)=N1 [Compound 68] | 13.4 | –
O=S(=O)(c1cc(Cl)ccc1Cl)N1CCCC(c2ccccc2)=N1 [Compound 52] | 42 | –
CN(C)c1ccc(C2=NN(S(=O)(=O)c3ccc(Br)cc3)CCC2)cc1 [Compound 213] | 326 | –
CCCCc1ccc(S(=O)(=O)N2CCCC(c3ccc(Cl)c(C(F)(F)F)c3)=N2)cc1 [Compound 116] | 8.77 | –
CN1C(=O)CSc2cc(C3=NN(S(=O)(=O)c4ccc(I)cc4)CCC3)ccc21 [Compound 138] | 341 | –

SMILES | IC50 [2] [nM] | also measured
O=[N+]([O-])c1cccc(S(=O)(=O)N2CCCC(c3ccc(Cl)c(C(F)(F)F)c3)=N2)c1 [Compound 127] | 4.04 | –
COC(=O)CCCOc1ccc(Br)cc1S(=O)(=O)N1CCCC(c2ccc(Cl)c(Cl)c2)=N1 [Compound 136, 3-(3,4-dichlorophenyl)-1-(2-(3-carbomethoxypropxy)-5-bromobenzenesulphonyl)-1,4,5,6-tetrahydropyridazine] | 70 | –
O=[N+]([O-])c1ccccc1S(=O)(=O)N1CCCC(c2ccc(F)cc2)=N1 [Compound 24] | 308 | –
O=S(=O)(c1ccc(I)cc1)N1CCCC(c2ccc3c(c2)oc2ccccc23)=N1 [Compound 145, 3-(Dibenzofuran-3-yl)-1-(4-iodobenzenesulfonyl)-1,4,5,6-tetrahydropyradazine] | 100 | –
CCCCc1ccc(C2=NN(S(=O)(=O)c3ccccc3)CCC2)cc1 [Compound 76] | 10000 | –
O=S(=O)(c1ccccc1)N1CCCC(c2ccccc2)=N1 [Compound 66] | 375 | –
O=S(=O)(/C=C/c1ccc2ccccc2c1)N1CCCC(c2ccc(Cl)c(C(F)(F)F)c2)=N1 [Compound 177] | 528 | –
O=[N+]([O-])c1cc(S(=O)(=O)N2CCCC(c3ccc(Cl)cc3)=N2)ccc1Cl [Compound 67] | 126 | –
O=S(=O)(c1ccc(I)cc1)N1CCCC(c2cccc(Cl)c2)=N1 [Compound 96] | 12.1 | –
O=S(=O)(c1cc(Cl)c(Cl)cc1Cl)N1CCCC(c2ccc(Cl)c(Cl)c2)=N1 [Compound 107] | 7.45 | –
O=S(=O)(c1ccc(F)cc1)N1CCCC(c2ccc(Cl)c(Cl)c2)=N1 [Compound 106] | 7.11 | –
O=S(=O)(c1cc(Cl)ccc1Cl)N1CCCC(c2cccc(Cl)c2)=N1 [Compound 91] | 2.39 | –
O=S(=O)(c1ccc(C(F)(F)F)cc1)N1CCCC(c2ccccc2)=N1 [Compound 61] | 435 | –
O=S(=O)(c1ccc(C(F)(F)C(F)(F)F)cc1)N1CCCC(c2ccc(Cl)c(Cl)c2)=N1 [Compound 272, 3-(3,4-Dichlorophenyl)-1-(4-pentafluoroethylbenzenesulfonyl)-1,4,5,6-tetrahydropyridazine] | 329 | –
O=S(=O)(c1ccc(Br)cc1)N1CCCC(c2ccc(F)cc2)=N1 [Compound 19] | 61 | –
O=[N+]([O-])c1cc(S(=O)(=O)N2CCCC(c3ccccc3)=N2)ccc1Cl [Compound 58] | 444 | –
O=S(=O)(c1cc(Cl)cc(Cl)c1)N1CCCC(c2ccc(Cl)cc2)=N1 [Compound 31] | 4 | –
O=S(=O)(/C=C/c1ccccc1)N1CCCC(c2ccc(Cl)c(C(F)(F)F)c2)=N1 [Compound 276] | 53.9 | –

From patent US5684151A, “1-arylsulphonyl, arylcarbonyl and 1-arylphosphonyl-3-phenyl-1,4,5,6-tetrahydropyridazines” (priority 1995, dated 1997)
